In US20070293559A1, “Orally Administered Agent For Preventing Or Improving Dry Station Of Skin” (priority 2004, published 2007):

Tests used:
[1] = tested on: HOS:HR-1 mice; assay: Transepidermal water loss (TEWL) in mice with dry skin induced by special feed; format: in vivo; details: for TEWL value: right rump, group average
Description: HOS:HR-1 mice (female, 4 weeks old, purchased from SLC Japan) were used in the test. The breeding conditions were that the room temperature was 22±2° C., the humidity was 50±5% and a feed and water were freely ingested.
Each test group consisted of 10 mice. A commercially available powder feed CE-2 was fed to mice of the first group, a special feed (manufactured by Nippon Nosan Kogyo K.K.) was fed to mice of the second group, the special feed containing 0.5% by weight of hydroxyproline was fed to mice of the third group, and the special feed containing 1% by weight of hydroxyproline was fed to mice of the fourth group. The dry skin was induced in HOS:HR-1 mice by feeding of the special feed (The journal of international medical research pharmacology, 32, 392-399 (2004)).
A transepidermal water loss (TEWL) value of the right rump of each mouse was measured as an index of a barrier function of stratum corneum at the start-up of the feeding of each feed, after four weeks and after six weeks using Tewameter TM210 (Courage+Khazaka electronic GmbH, Germany), and an average value of each group was calculated.

[2] = tested on: HOS:HR-1 mice; assay: Water content of the skin surface (SKICON-200) after oral ingestion in feed; format: in vivo; details: CE-2 feed containing 0.5% or 1% by weight of hydroxyproline, two to five weeks of feeding, relative to CE-2 group
Description: HOS:HR-1 mice (male, 5 weeks old, purchased from SLC Japan) were used in the test. The breeding conditions were that the room temperature was 22±2° C., the humidity was 35±15% and a feed and water were freely ingested.
Each test group consisted of 10 mice. A commercially available powder feed CE-2 (manufactured by Clea Japan) was fed to mice of the first group, CE-2 containing 0.5% by weight of trans-4-hydroxy-L-proline (hereinafter also referred to simply as hydroxyproline; manufactured by Kyowa Hakko Kogyo Co., Ltd.) was fed to mice of the second group, and CE-2 containing 1% by weight of hydroxyproline was fed to mice of the third group.
The water content of the skin surface on the back thigh upper portion of each mouse was measured with SKICON-200 (manufactured by IBS) every one week, from two weeks to five weeks after the start-up of the feeding of each feed. The measurement was conducted ten times for each mouse, and an average value of each mouse was obtained. Further, an average value of each test group was calculated.
The relative epidermal water content was calculated according to the following formula using the average value. Relative epidermal water content (%)=(A2/A1)×100 • A1: Epidermal water content of the first group • A2: Epidermal water content of the second or third group

**Q.** For `O=C(O)[C@@H]1C[C@@H](O)CN1` [hydroxyproline, trans-4-hydroxy-L-proline], which “transepidermal water loss, t-test in comparison with the second group” value ([1]; fourth group (1% hydroxyproline in special feed), risk rate of less than 5% defined as significant) is on record?
**A.** significant difference

**Q.** What about the TEWL value ([1]; fourth group: special feed containing 1% by weight of hydroxyproline, feeding period 0 week (start-up)) of the same molecule?
**A.** 5.07 g/m^2/hour

**Q.** What about the TEWL value ([1]; fourth group: special feed containing 1% by weight of hydroxyproline, feeding period 4 weeks) of the same molecule?
**A.** 25.07 g/m^2/hour

**Q.** What about the TEWL value ([1]; fourth group: special feed containing 1% by weight of hydroxyproline, feeding period 6 weeks) of the same molecule?
**A.** 25.40 g/m^2/hour

**Q.** And the “barrier function of stratum corneum” value ([1]; oral ingestion of hydroxyproline)?
**A.** effect of improving the barrier function of stratum corneum

**Q.** And the “increase in transepidermal water loss” value ([1]; third and fourth groups (0.5% and 1% hydroxyproline in special feed) versus second group (special feed))?
**A.** suppressed dependently on the concentration

**Q.** And the TEWL value ([1]; third group: special feed containing 0.5% by weight of hydroxyproline, feeding period 0 week (start-up))?
**A.** 4.99 g/m^2/hour

**Q.** What about the TEWL value ([1]; third group: special feed containing 0.5% by weight of hydroxyproline, feeding period 4 weeks) of the same molecule?
**A.** 29.80 g/m^2/hour

**Q.** And the TEWL value ([1]; third group: special feed containing 0.5% by weight of hydroxyproline, feeding period 6 weeks)?
**A.** 29.04 g/m^2/hour

**Q.** What about the “water content of the skin (relative epidermal water content, FIG. 1)” value [2] of the same molecule?
**A.** markedly improved
